Oligonucleotides are written 5' to 3', each unit as a sugar letter and its base; * is a phosphorothioate linkage, no mark a phosphodiester; rarer units and linkages stand in square brackets, end groups in braces. Plain capitals give the bases only. k = constrained ethyl (cEt); [5mC] = 5-methylcytosine; d = 2'-deoxy (DNA)
Columns and labels:
AR mRNA [1] = test: Dose-dependent antisense inhibition of human AR in HuVEC cells (electroporation, qRT-PCR RTS3559, IC50); type: cell-based; details: HuVEC, electroporation, approximately 16 hours
Method in brief: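 HuVEC cells dosed with antisense oligonucleotides by electroporation and treated approximately 16 hours. AR mRNA quantified by real-time qPCR with primer probe set RTS3559 and normalised to total RNA by RIBOGREEN; IC50 from dose-response.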

AR mRNA [2] = test: Antisense inhibition of human AR in HuVEC cells, single concentration (electroporation, qRT-PCR RTS3559); type: cell-based
Method in brief: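 HuVEC cells electroporated with antisense oligonucleotides at a single concentration. AR mRNA quantified by qRT-PCR using human primer-probe set RTS3559 and normalised to total RNA content by RIBOGREEN.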

[3] = Table 19, 500 nM oligonucleotide, electroporation, approximately 24 hours, relative to untreated control

| Substance | percent inhibition of AR, 46.9 nM (AR mRNA [1]; Table 30) | percent inhibition of AR, 187.5 nM (AR mRNA [1]; Table 30) | percent inhibition of AR, 750.0 nM (AR mRNA [1]; Table 30) | percent inhibition of AR, 3000.0 nM (AR mRNA [1]; Table 30) | IC50 (AR mRNA [1]; Table 30) | % inhibition (AR mRNA [2]; 500 nM ASO, ~24 h, Table 18) | percent inhibition of AR, 46.9 nM (AR mRNA [1]; Table 31) | percent inhibition of AR, 187.5 nM (AR mRNA [1]; Table 31) | percent inhibition of AR, 750.0 nM (AR mRNA [1]; Table 31) | percent inhibition of AR, 3000.0 nM (AR mRNA [1]; Table 31) | IC50 (AR mRNA [1]; Table 31) | percent inhibition of AR, 46.9 nM (AR mRNA [1]; Table 32) | percent inhibition of AR, 187.5 nM (AR mRNA [1]; Table 32) | percent inhibition of AR, 750.0 nM (AR mRNA [1]; Table 32) | percent inhibition of AR, 3000.0 nM (AR mRNA [1]; Table 32) | IC50 (AR mRNA [1]; Table 32) | % inhibition (AR mRNA [2]; [3]) |
| --- | --- | --- | --- | --- | --- | --- | --- | --- | --- | --- | --- | --- | --- | --- | --- | --- | --- |
| 583734 (antisense kT*k[5mC]*kA*d[5mC]*dT*dT*d[5mC]*dG*d[5mC]*dG*d[5mC]*dA*d[5mC]*kG*k[5mC]*kT) [compound 583734] | 29% | 60% | 74% | 75% | 0.12 µM | 46% |  |  |  |  |  |  |  |  |  |  |  |
| 583736 (antisense kT*kG*kG*dA*dT*d[5mC]*dA*d[5mC]*dT*dT*d[5mC]*dG*d[5mC]*kG*k[5mC]*kA) [compound 583736] | 21% | 38% | 60% | 63% | 0.51 µM | 47% |  |  |  |  |  |  |  |  |  |  |  |
| 583738 (antisense kG*kT*kT*d[5mC]*dT*dG*dG*dA*dT*d[5mC]*dA*d[5mC]*dT*kT*k[5mC]*kG) [compound 583738] | 16% | 40% | 56% | 71% | 0.51 µM | 36% |  |  |  |  |  |  |  |  |  |  |  |
| 583745 (antisense k[5mC]*kG*k[5mC]*dT*d[5mC]*dG*d[5mC]*dG*dG*d[5mC]*d[5mC]*dT*d[5mC]*kT*kG*kG) [compound 583745] | 19% | 51% | 68% | 77% | 0.27 µM | 40% |  |  |  |  |  |  |  |  |  |  |  |
| 583746 (antisense kT*kG*k[5mC]*dG*d[5mC]*dT*d[5mC]*dG*d[5mC]*dG*dG*d[5mC]*d[5mC]*kT*k[5mC]*kT) [compound 583746] |  |  |  |  |  | 32% | 24% | 44% | 65% | 67% | 0.35 µM |  |  |  |  |  |  |
| 583747 (antisense kG*k[5mC]*kT*dG*d[5mC]*dG*d[5mC]*dT*d[5mC]*dG*d[5mC]*dG*dG*k[5mC]*k[5mC]*kT) [compound 583747] |  |  |  |  |  | 35% | 13% | 38% | 50% | 69% | 0.64 µM |  |  |  |  |  |  |
| 583749 (antisense kA*kG*kG*dT*dG*d[5mC]*dT*dG*d[5mC]*dG*d[5mC]*dT*d[5mC]*kG*k[5mC]*kG) [compound 583749] |  |  |  |  |  |  |  |  |  |  |  | 34% | 40% | 75% | 87% | 0.17 µM | 36% |
| 583759 (antisense kG*k[5mC]*kT*dG*dT*dT*d[5mC]*d[5mC]*dT*d[5mC]*dA*dT*d[5mC]*k[5mC]*kA*kG) [compound 583759] |  |  |  |  |  |  |  |  |  |  |  | 5% | 28% | 61% | 67% | 0.63 µM | 38% |
| 583787 (antisense kG*kG*kT*dG*d[5mC]*dT*dG*dG*d[5mC]*d[5mC]*dT*d[5mC]*dG*k[5mC]*kT*k[5mC]) [compound 583787] |  |  |  |  |  |  |  |  |  |  |  | 15% | 31% | 66% | 74% | 0.43 µM | 37% |
| 583789 (antisense kT*kG*k[5mC]*dA*dT*dG*dG*dT*dG*d[5mC]*dT*dG*dG*k[5mC]*k[5mC]*kT) [compound 583789] |  |  |  |  |  |  | 30% | 49% | 71% | 85% | 0.19 µM |  |  |  |  |  | 39% |
| 583790 (antisense kG*kT*kT*dG*d[5mC]*dA*dT*dG*dG*dT*dG*d[5mC]*dT*kG*kG*k[5mC]) [compound 583790] |  |  |  |  |  |  | 17% | 42% | 65% | 81% | 0.32 µM |  |  |  |  |  | 39% |

From patent USRE48461E1, “Modulation of androgen receptor expression” (Ionis Pharmaceuticals, Inc., priority 2012, dated 2021)
